Measured values as given in patent US20230287044A1, “NOVEL ANTIBACTERIAL PEPTIDE AND USE THEREOF” (priority 2020, published 2023).
Converted amounts (≈) assume the structure as drawn. Like-named read-outs stand apart in the source and are kept apart here. Square brackets hold non-standard residues; d marks the D form. Peptide text beside a SMILES is read from it.

Assays:
[1] = test system: MRSA (S. aureus) KCCM 40510; assay type: cell-based, Staphylococcus aureus; settings: KCCM 40510, 18 h
In short: (§1)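 Mid-log cultures grown in CAMHB and diluted to 1× 10^6 cfu/ml in PBS were mixed with an equal volume of peptide in CAMHB (80 µM to 0.63 µM twofold dilutions). MIC taken as the mean of three independent experiments.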

[2] = test system: MRPA (P. aeruginosa) CCARM 2180; assay type: cell-based, Pseudomonas aeruginosa; settings: CCARM 2180, 18 h
In short: as §1

[3] = test system: VRE (E. faecalis) ATCC 51575; assay type: cell-based, Enterococcus faecalis
In short: as §1

[4] = Solubility of antibacterial peptides in solution; assay type: physicochemical
[5] = test system: MRAB (A. baumannii) ATCC BAA 1605; assay type: cell-based, Acinetobacter baumannii
In short: as §1

[6] = test system: 30 species of Acinetobacter baumannii (A. baumannii); assay type: cell-based
Procedure: In addition, the results obtained by measuring the minimum inhibitory concentrations of KSH29, KSH42 and KSH43 against 30 species of Acinetobacter baumannii (A. baumannii) are shown in Table 4 below.
The minimum inhibitory concentrations (MIC) against the 30 species of Acinetobacter baumannii were measured in the following manner.
The strain 1605 was purchased from ATCC (American Type Culture Collection, USA). In addition, the strain 40203 was purchased from the Korean Culture Center of Microorganisms.
The COL^R refers to resistance to colistin, the TGC^R refers to resistance to tigecycline, and the TGC^I refers to tigecycline intermediate strains.

[7] = CAMHB, 37° C., 18 hours, average of three experiments

CC[C@@H](C)[C@@H](NC(=O)[C@@H](Cc1c[nH]c2ccccc12)NC(=O)[C@@H](CCCCN)NC(=O)[C@@H](CCCCN)NC(=O)[C@H](N)CCCCN)C(=O)N[C@H](Cc1c[nH]c2ccccc12)C(=O)N[C@@H](C(=O)N[C@H](CC(C)C)C(=O)N[C@H](Cc1c[nH]c2ccccc12)C(=O)N[C@H](CCCCN)C(N)=O)C(C)C [KSH46, kkkwiwvlwk] (H-[dK][dK][dK][dW][dI][dW][dV][dL][dW][dK]-NH2; N-terminus assumed)
MIC MRSA (S. aureus) KCCM 40510 [1]: 1.25 µM (≈ 1.77 µg/mL) | MIC MRPA (P. aeruginosa) CCARM 2180 [2]: 1.25 µM (≈ 1.77 µg/mL) | MIC VRE (E. faecalis) ATCC 51575 ([3]; ATCC 51575, 18 h): 1.25 µM (≈ 1.77 µg/mL) | solubility at 12 h ([4]; aqueous buffer): > 200 µM | solubility at 12 h ([4]; plasma or biological fluid): 200 µM (≈ 283 µg/mL) | solubility at 12 h ([4]; water): > 2000 µM | MIC MRAB (A. baumannii) ATCC BAA 1605 ([5]; ATCC BAA 1605, 18 h): 0.63 µM (≈ 0.891 µg/mL)

CC(C)[C@@H](NC(=O)[C@H](N)Cc1c[nH]c2ccccc12)C(=O)N[C@@H](C(=O)N[C@H](Cc1c[nH]cn1)C(=O)N[C@@H](C(=O)N[C@@H](C(=O)N[C@H](Cc1c[nH]c2ccccc12)C(=O)N[C@H](CCCNC(=N)N)C(=O)N[C@H](CCCNC(=N)N)C(=O)N[C@H](CCCNC(=N)N)C(N)=O)C(C)C)C(C)C)C(C)C [KSH45, wvvhvvwrrr] (H-[dW][dV][dV][dH][dV][dV][dW][dR][dR][dR]-NH2; N-terminus assumed)
MIC MRSA (S. aureus) KCCM 40510 [1]: 1.25 µM (≈ 1.74 µg/mL) | MIC MRPA (P. aeruginosa) CCARM 2180 [2]: 2.5 µM (≈ 3.48 µg/mL) | MIC VRE (E. faecalis) ATCC 51575 ([3]; ATCC 51575, 18 h): 1.25 µM (≈ 1.74 µg/mL) | solubility at 12 h ([4]; aqueous buffer): > 200 µM | solubility at 12 h ([4]; plasma or biological fluid): 50 µM (≈ 69.6 µg/mL) | solubility at 12 h ([4]; water): > 2000 µM | MIC MRAB (A. baumannii) ATCC BAA 1605 ([5]; ATCC BAA 1605, 18 h): 1.25 µM (≈ 1.74 µg/mL)

CC[C@@H](C)[C@@H](NC(=O)[C@@H](Cc1c[nH]c2ccccc12)NC(=O)[C@H](NC(=O)[C@@H](CC(C)C)NC(=O)[C@H](N)Cc1c[nH]c2ccccc12)C(C)C)C(=O)N[C@H](Cc1c[nH]c2ccccc12)C(=O)N[C@H](CCCNC(=N)N)C(=O)N[C@H](CCCNC(=N)N)C(=O)N[C@H](CCC(N)=O)C(=O)N[C@H](CCCNC(=N)N)C(N)=O [KSH31, wlvwiwrrqr] (H-[dW][dL][dV][dW][dI][dW][dR][dR][dQ][dR]-NH2; N-terminus assumed)
MIC MRPA (P. aeruginosa) CCARM 2180 [2]: >5 µM | MIC VRE (E. faecalis) ATCC 51575 [3, 7]: 1.25 µM (≈ 1.87 µg/mL) | solubility at 12 h ([4]; aqueous buffer): ≥ 100 µM | solubility at 12 h ([4]; plasma or biological fluid): 25 µM (≈ 37.4 µg/mL) | solubility at 12 h ([4]; water): > 2000 µM | MIC MRAB (A. baumannii) ATCC BAA 1605 [5, 7]: 1.25 µM (≈ 1.87 µg/mL)

Colistin [reference compound]
solubility at 12 h ([4]; read-out: Solubility in solution CAMHB): >200 µM | solubility at 12 h ([4]; read-out: Solubility in solution H2O): >2000 µM | solubility at 12 h ([4]; read-out: Solubility in solution PBS): >200 µM | MIC ([6]; A. baumannii strain 1): 0.63 µM | MIC ([6]; A. baumannii strain 3 (COL^R)): >40 µM | MIC ([6]; A. baumannii strain 6 (TGC^I)): 2.5 µM | MIC ([6]; A. baumannii strain 10): 2.5 µM | MIC ([6]; A. baumannii strain 14): 1.25 µM | MIC ([6]; A. baumannii strain 15): 0.63 µM | MIC ([6]; A. baumannii strain 16): <0.31 µM | MIC ([6]; A. baumannii strain 19): <0.31 µM | MIC ([6]; A. baumannii strain 22 (TGC^I)): 1.25 µM | MIC ([6]; A. baumannii strain 39): <0.31 µM | MIC ([6]; A. baumannii strain 44): 1.25 µM | MIC ([6]; A. baumannii strain 66): 1.25 µM | MIC ([6]; A. baumannii strain 68): 0.63 µM | MIC ([6]; A. baumannii strain 69): 1.25 µM | MIC ([6]; A. baumannii strain 71): 1.25 µM | MIC ([6]; A. baumannii strain 76): <0.31 µM | MIC ([6]; A. baumannii strain 80): 0.63 µM | MIC ([6]; A. baumannii strain 82): 0.63 µM | MIC ([6]; A. baumannii strain 86): 0.63 µM | MIC ([6]; A. baumannii strain 89): 2.5 µM | MIC ([6]; A. baumannii strain 102 (TGC^I)): 0.63 µM | MIC ([6]; A. baumannii strain 127): 0.63 µM | MIC ([6]; A. baumannii strain 141 (TGC^R)): <0.31 µM | MIC ([6]; A. baumannii strain 144): 0.63 µM | MIC ([6]; A. baumannii strain 147 (TGC^R)): 5 µM | MIC ([6]; A. baumannii strain 152 (TGC^R)): 1.25 µM | MIC ([6]; A. baumannii strain 1605 (ATCC)): 0.63 µM | MIC ([6]; A. baumannii strain 10087): 1.25 µM | MIC ([6]; A. baumannii strain 19606): 1.25 µM | MIC ([6]; A. baumannii strain 40203 (Korean Culture Center of Microorganisms)): 0.63 µM

CC[C@@H](C)[C@@H](NC(=O)[C@@H](Cc1c[nH]c2ccccc12)NC(=O)[C@H](NC(=O)[C@@H](CC(C)C)NC(=O)[C@H](N)Cc1c[nH]c2ccccc12)C(C)C)C(=O)N[C@H](Cc1c[nH]c2ccccc12)C(=O)N[C@H](CCC(N)=O)C(=O)N[C@H](CCCNC(=N)N)C(=O)N[C@H](CCCNC(=N)N)C(=O)N[C@H](CCCNC(=N)N)C(N)=O [KSH30, wlvwiwqrrr] (H-[dW][dL][dV][dW][dI][dW][dQ][dR][dR][dR]-NH2; N-terminus assumed)
MIC MRPA (P. aeruginosa) CCARM 2180 [2]: >5 µM | solubility at 12 h ([4]; aqueous buffer): ≥ 25 µM | solubility at 12 h ([4]; plasma or biological fluid): 50 µM (≈ 74.9 µg/mL) | solubility at 12 h ([4]; water): > 2000 µM | MIC MRAB (A. baumannii) ATCC BAA 1605 [5, 7]: 1.25 µM (≈ 1.87 µg/mL)
